Patent publication US4315942A, “Intravenously administrable iron supplement” (New England Medical Center, Inc., priority 1979, dated 1982)

What was measured:
[1] = test system: serum transferrin; assay: Serum Fe, TIBC and saturation of serum transferrin after IV injection of the complex in a dog (efficacy to increase bioavailable iron); type: in vivo; settings: for serum Fe / TIBC (Total Iron Binding Capacity): IV push; for serum Fe: before injection 235 (dog fed an iron rich diet); for TIBC (Total Iron Binding Capacity): before injection 360
Experimental: (§1) A 17 kg dog was premedicated and then anesthesized with IV sodium amytal. Through a femoral vein cutdown, the following studies were drawn before and after the addition of the iron complex solution: Hgb, Hct, serum Fe and TIBC (Total Iron Binding Capacity). In addition, serum Fe and TIBC were drawn after the addition of one half of the solution.
(§2) 40 ml of fresh stock solution (containing 6 mg of iron) were given by IV push through the femoral vein. The dog's ECG was monitored throughout the procedure. In approximately 10 minutes, the second set of studies were drawn and a second 40 ml were pushed. The final set of blood studies were drawn in approximately 10 minutes.

[2] = Hgb and Hct after IV injection of the complex in a dog; type: in vivo; settings: after injection of 12 mg Fe, IV push, about 10 minutes
Experimental: as §1, §2

[3] = oral, relatively large daily doses; cited from earlier work
[4] = after injection of 6 mg Fe, about 10 minutes
[5] = after injection of 12 mg Fe, about 10 minutes after second 40 ml

CC(=O)N[O-].CC(=O)N[O-].CC(=O)N[O-].[Fe+3] [ferric acetohydroxamic acid complex, iron (III) complex of acetohydroxamic acid]
saturation of serum transferrin ([1]; addition of 6 mg of iron, IV, serum Fe equal to the TIBC): saturated the serum transferrin | serum iron relative to TIBC ([1]; after a further 6 mg of iron, IV): greater than the TIBC | serum Fe [1, 4]: 360 μg/100 ml | TIBC (Total Iron Binding Capacity) [1, 4]: 360 μg/100 ml | serum Fe [1, 5]: 470 μg/100 ml | TIBC (Total Iron Binding Capacity) [1, 5]: 330 μg/100 ml | Hgb ([2]; before injection 6.7): 6.5 g% | Hct ([2]; before injection 20.5): 20.0%

ferrous sulfate
side effects [3]: nausea, vomiting, constipation
